Earlier results, collected in paper PMC3618964 (Journal of medicinal chemistry, 2010).

Molecular target: SaDHFR
Settings: read-out: Ki value (SaDHFR)

In the case of `CCc1nc(N)nc(N)c1C#CCc1cc(OC)ccc1OC` [Compound 9], the Ki is listed as 9.9 nM.
